Test results: US8440595B2, “Fungicides” (priority 2007, dated 2013)

Experiments:
[1] = system: Septoria nodorum; experiment: leaf disk assay, Septoria nodorum (wheat glume blotch), preventive; type: in vivo; conditions: for Efficacy (%): wheat leaf segments, four days after inoculation

Structure (SMILES)	Efficacy (%) ([1]; Concentration 60 ppm)	Efficacy (%) ([1]; Concentration 200 ppm)	fungicidal activity against Septoria nodorum compared with the compound from the state of the art ([1]; both application rates (200 and 60 ppm))	melting point
CC#CC(C)(C)NC(=O)C(Oc1cc(Br)c2ncc(Br)cc2c1)SC (stereo not drawn) [2 (Table 23), reference compound]	0%	0%	–	–
CC#CC(C)(C)NC(=O)C(Oc1cc(Br)c2ncc(I)cc2c1)SC (stereo not drawn) [2(5), 2-(8-bromo-3-iodo-quinolinyl-6-oxy)-2-methylthio-N-(2-methylpent-3-yn-2-yl) acetamide]	80%	100%	substantially better fungicidal activity	161 to 162 °C
